Data: patent US11485736B2 (KSQ Therapeutics, Inc., priority 2018, dated 2022)
Like-named read-outs stand apart in the source and are kept apart here.

How the values were obtained:
[1] = ADME solubility determination at pH 2.0 and pH 7.4; assay type: physicochemical; conditions: aqueous buffer, thermodynamic from solid, LC-MS/MS
Summary of the method: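 Dried residues of 10 mM DMSO stocks were shaken in PBS pH 7.4 or pH 2.0 for 24 hours at 25° C. and 1,100 rpm. After centrifugation, supernatants were quantified by LC-MS/MS against a standard of known concentration, applying a dilution factor.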

[2] = Liver microsomal stability, human liver microsomes; assay type: in vitro ADME; conditions: 1 μM compound, NADPH, read-out: t1/2 (min) in HLM
Summary of the method: (§1)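 Compound (1 μM final) was incubated with prewarmed human or rat liver microsomes (1 mg/mL in 100 mM phosphate master mix) plus NADPH; aliquots at 0.5–30 minutes were quenched in cold acetonitrile and quantified by LC-MS/MS. Half-life came from the ln(% remaining) versus time slope, converted to CLint (μL/min/mg prot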

[3] = Liver microsomal stability, rat liver microsomes; assay type: in vitro ADME; conditions: 1 μM compound, NADPH, read-out: t1/2 (min) in RLM
Summary of the method: as §1

[4] = PBS pH 2.0, shaken at 25° C. for 24 hours, read-out: Solubility at pH 2.0
[5] = PBS pH 7.4, shaken at 25° C. for 24 hours, read-out: Solubility at pH 7.4

| Compound | solubility at 24 h [1, 4] | solubility at 24 h [1, 5] | half-life at 1 μM [2] | half-life at 1 μM [3] |
| --- | --- | --- | --- | --- |
| COc1ncnc(C2CC2)c1-c1nc(OC)c2cnn(Cc3ccc(-n4nc(C(F)(F)F)cc4C)cc3)c2n1 [Example 28] | < 10 µM | < 10 µM | > 25 min | > 25 min |
| COc1ncnc(C2CC2)c1-c1ncc2ncn(Cc3ccc(-c4nc(C(F)(F)F)cn4C(C)C)cc3)c2n1 [Example 204] | > 10 µM | > 10 µM | > 25 min | < 25 min |
| COc1ncnc(C2CC2)c1-c1ncc2cnn(Cc3ccc(-n4nc(C(F)(F)F)cc4CO)cc3)c2n1 [Example 198, (1-(4-((6-(4-cyclopropyl-6-methoxypyrimidin-5-yl)-1H-pyrazolo[3,4-d]pyrimidin-1-yl)methyl)phenyl)-3-(trifluoromethyl)-1H-pyrazol-5-yl)methanol] | < 10 µM | < 10 µM | > 25 min | > 25 min |
| COc1ncnc(C2CC2)c1-c1ncc2c(OC)nn(Cc3ccc(-c4cn(C(C)C)c(C(F)(F)F)n4)cc3)c2n1 [Example 185] | < 10 µM | < 10 µM | > 25 min | > 25 min |
| CCn1cc(C(F)(F)F)nc1-c1ccc([C@@H](C)n2ncc3cnc(-c4c(OC)ncnc4C4CCC4)nc32)cc1 (single isomer, unassigned) [Example 100] | > 10 µM | < 10 µM | < 25 min | < 25 min |
| COc1ncnc(C2CC2)c1-c1ncc2cnn(Cc3ccc(-n4nc(C(F)(F)F)cc4N(C)C)c(F)c3)c2n1 [Example 122] | < 10 µM | < 10 µM | < 25 min | < 25 min |
| COc1ncnc(C2CC2)c1-c1ncc2c(OC)nn([C@@H](C)c3ccc(-c4nc(C(F)(F)F)c(Br)n4C)cc3)c2n1 [Example 188, (S)-1-(1-(4-(5-bromo-1-methyl-4-(trifluoromethyl)-1H-imidazol-2-yl)phenyl)ethyl)-6-(4-cyclopropyl-6-methoxypyrimidin-5-yl)-3-methoxy-1H-pyrazolo[3,4-d]pyrimidine] | < 10 µM | < 10 µM | > 25 min | > 25 min |
| COCc1nc2cnc(-c3c(OC)ncnc3C3CC3)nc2n1Cc1ccc(-c2nc(C(F)(F)F)cn2C(C)C)cc1 [Example 207] | > 10 µM | > 10 µM | < 25 min | > 25 min |
| CCn1cc(C(F)(F)F)nc1-c1ccc(Cn2nc(N3CCC3)c3cnc(-c4c(OC)ncnc4C4CC4)nc32)cc1 [Example 186, 3-(azetidin-1-yl)-6-(4-cyclopropyl-6-methoxypyrimidin-5-yl)-1-(4-(1-ethyl-4-(trifluoromethyl)-1H-imidazol-2-yl)benzyl)-1H-pyrazolo[3,4-d]pyrimidine] | > 10 µM | > 10 µM | < 25 min | < 25 min |
| COc1nc(N)nc(C2CC2)c1-c1ncc2cnn(Cc3ccc(-n4nc(C(F)(F)F)cc4C)cc3)c2n1 [Example 112] | > 10 µM | < 10 µM | > 25 min | > 25 min |
| CCn1cc(C(F)(F)F)nc1-c1ccc(Cn2nc(Br)c3cnc(-c4c(OC)ncnc4C4CC4)nc32)cc1 [Example 170, 3-bromo-6-(4-cyclopropyl-6-methoxypyrimidin-5-yl)-1-(4-(1-ethyl-4-(trifluoromethyl)-1H-imidazol-2-yl)benzyl)-1H-pyrazolo[3,4-d]pyrimidine] | < 10 µM | < 10 µM | > 25 min | < 25 min |
| COc1ncnc(C2CC2)c1-c1ncc2nc(C3CC3)n(Cc3ccc(-n4nc(C(F)(F)F)cc4C)cc3)c2n1 [Example 213] | < 10 µM | < 10 µM | > 25 min | > 25 min |
| CCn1cc(C(F)(F)F)nc1-c1ccc([C@H](C)n2ncc3cnc(-c4c(OC)ncnc4C(C)C)nc32)cc1 [Example 117] | > 10 µM | > 10 µM | < 25 min | < 25 min |
| Cc1cc(C(F)F)nn1-c1ccc(Cn2ncc3cnc(-c4cccnc4C(C)C)nc32)cc1 [Example 32] | > 10 µM | < 10 µM | < 25 min | < 25 min |
| CCn1c(-c2ccc(Cn3nc(OC)c4cnc(-c5c(OC)ncnc5C5CC5)nc43)cc2)nc(C(F)(F)F)c1Br [Example 189] | < 10 µM | < 10 µM | > 25 min | > 25 min |
| COc1ncnc(C2CC2)c1-c1ncc2cnn([C@H]3CCc4cc(-c5nc(C(F)(F)F)cn5C(C)C)ccc43)c2n1 [Example 173, (S)-6-(4-cyclopropyl-6-methoxypyrimidin-5-yl)-1-(5-(1-isopropyl-4-(trifluoromethyl)-1H-imidazol-2-yl)-2,3-dihydro-1H-inden-1-yl)-1H-pyrazolo[3,4-d]pyrimidine] | < 10 µM | < 10 µM | > 25 min | > 25 min |

Now from value to compound:

| solubility at 24 h [1, 4] | solubility at 24 h [1, 5] | half-life at 1 μM [2] | half-life at 1 μM [3] | Compound |
| --- | --- | --- | --- | --- |
| < 10 µM | < 10 µM | > 25 min | > 25 min | COc1ncnc(C2CC2)c1-c1ncc2cnn(Cc3ccc(-c4nc(C(F)(F)F)c(Br)n4C(C)C)cc3)c2n1 [Example 162] |
| > 10 µM | > 10 µM | < 25 min | < 25 min | COCC(C)n1cc(C(F)(F)F)nc1-c1ccc(Cn2ncc3cnc(-c4c(OC)ncnc4C4CC4)nc32)cc1 (centres unmarked) [Example 150, 6-(4-cyclopropyl-6-methoxypyrimidin-5-yl)-1-(4-(1-(1-methoxypropan-2-yl)-4-(trifluoromethyl)-1H-imidazol-2-yl)benzyl)-1H-pyrazolo[3,4-d]pyrimidine] |
| < 10 µM | < 10 µM | > 25 min | > 25 min | COc1ncnc(C2CC2)c1-c1ncc2cnn(Cc3ccc(-c4nc(C(F)(F)F)sc4C)cc3)c2n1 [Example 125] |
| > 10 µM | < 10 µM | < 25 min | < 25 min | COc1nccc(C)c1-c1ncc2cnn(Cc3ccc(-c4nc(C(F)(F)F)cn4C)cc3)c2n1 [Example 6, 6-(2-methoxy-4-methylpyridin-3-yl)-1-(4-(1-methyl-4-(trifluoromethyl)-1H-imidazol-2-yl)benzyl)-1H-pyrazolo[3,4-d]pyrimidine] |
| < 10 µM | < 10 µM | > 25 min | > 25 min | Cn1cc(C(F)(F)F)nc1-c1ccc(Cn2ncc3cnc(-c4c(OS(=O)(=O)C(F)(F)F)ncnc4C4CC4)nc32)cc1 [Example 160, 6-Cyclopropyl-5-(1-(4-(1-methyl-4-(trifluoromethyl)-1H-imidazol-2-yl)benzyl)-1H-pyrazolo[3,4-d]pyrimidin-6-yl)pyrimidin-4-yl trifluoromethanesulfonate] |
| < 10 µM | < 10 µM | < 25 min | < 25 min | CSc1ncnc(C)c1-c1ncc2cnn(Cc3ccc(-n4nc(C(F)(F)F)cc4C)cc3)c2n1 [Example 46] |
| > 10 µM | > 10 µM | < 25 min | < 25 min | CC(C)c1ncccc1-c1ncc2cnn(Cc3ccc(-c4nc(C(F)(F)F)cn4C)cc3)c2n1 [Example 9, 6-(2-isopropylpyridin-3-yl)-1-(4-(1-methyl-4-(trifluoromethyl)-1H-imidazol-2-yl)benzyl)-1H-pyrazolo[3,4-d]pyrimidine] |
| > 10 µM | < 10 µM | > 25 min | < 25 min | CCn1cc(C(F)(F)F)nc1-c1ccc(Cn2ncc3cnc(-c4c(OC5CC5)ncnc4C4CC4)nc32)cc1 [Example 63] |
| > 10 µM | > 10 µM | < 25 min | < 25 min | COc1cccc(C2CC2)c1-c1ncc2cnn(Cc3ccc(-c4nc(C(F)(F)F)cn4C)cc3)c2n1 [Example 11, 6-(2-cyclopropyl-6-methoxyphenyl)-1-(4-(1-methyl-4-(trifluoromethyl)-1H-imidazol-2-yl)benzyl)-1H-pyrazolo[3,4-d]pyrimidine] |
| > 10 µM | < 10 µM | > 25 min | > 25 min | [2H]C([2H])([2H])Oc1ncnc(C2CC2)c1-c1ncc2cnn(Cc3ccc(-c4nc(C(F)(F)F)cn4CC)cc3)c2n1 [Example 67] |
| > 10 µM | > 10 µM | < 25 min | > 25 min | COc1ncnc(C2CC2)c1-c1ncc2cnn([C@@H](C)c3ccc(-c4nc(C(F)(F)F)cn4C)cc3)c2n1 (single isomer, unassigned) [Example 92] |
| < 10 µM | < 10 µM | < 25 min | < 25 min | COc1ncnc(C(C)(C)C)c1-c1ncc2cnn(Cc3ccc(-c4nc(C(F)(F)F)cn4C)cc3)c2n1 [Example 109] |
| > 10 µM | > 10 µM | > 25 min | > 25 min | COc1ncnc(OC)c1-c1ncc2cnn(Cc3ccc(-c4nc(C(F)(F)F)cn4C)cc3)c2n1 [Example 86] |
